Results on three compounds are retold here after patent US20230066011A1, “PYRROLOPYRIMIDINE DERIVATIVE, AND PHARMACEUTICAL COMPOSITION FOR PREVENTING OR TREATING PROTEIN KINASE-RELATED DISEASE COMPRISING SAME AS ACTIVE INGREDIENT” (VORONOI CO., LTD., priority 2019, published 2023).

A value given as a limit tells only on which side of the number the result lay.

The target of one test is T1, human GST-DYRK1A (Homo sapiens, UniProt Q13627).
T1 construct: purified human GST-DYRK1A (full length, Thermo Scientifics) enzyme; purchased Thermo Scientifics
Put plainly: GST-DYRK1A enzyme inhibition, ADP-Glo kinase assay. Format: biochemical. The settings on record: ATP 10 μM, GST-DYRK1A full length, read-out: DYRK1 IC50. The procedure, abridged:
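Full-length enzyme (10 ng) was incubated with 10 μM ATP and a specific substrate for 1 h at 25 °C in 40 mM Tris-HCl pH 7.4, 20 mM MgCl2, 0.5 mg/mL BSA, 50 μM DTT. Luminescence was read against a solvent control, and IC50 values were derived from 3 data sets.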

Another test concerns MDA-MB-468 cell line. Put plainly: Inhibition of proliferation of MDA-MB-468 cancer cells (Cell Titer-Glo). Format: cell-based. The settings on record: Homo sapiens, MDA-MB-468, 72 hours. An outline of the steps:
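A 72-hour treatment with compound (eleven final concentrations, 3-fold apart, top 10 μM) of cells seeded at 2,000 per well preceded a Cell Titer-Glo luminescence read, from which GI50 was obtained.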

The next test deals with T2, TTK (Homo sapiens, UniProt P33981).
T2 sequence (P33981 1-857): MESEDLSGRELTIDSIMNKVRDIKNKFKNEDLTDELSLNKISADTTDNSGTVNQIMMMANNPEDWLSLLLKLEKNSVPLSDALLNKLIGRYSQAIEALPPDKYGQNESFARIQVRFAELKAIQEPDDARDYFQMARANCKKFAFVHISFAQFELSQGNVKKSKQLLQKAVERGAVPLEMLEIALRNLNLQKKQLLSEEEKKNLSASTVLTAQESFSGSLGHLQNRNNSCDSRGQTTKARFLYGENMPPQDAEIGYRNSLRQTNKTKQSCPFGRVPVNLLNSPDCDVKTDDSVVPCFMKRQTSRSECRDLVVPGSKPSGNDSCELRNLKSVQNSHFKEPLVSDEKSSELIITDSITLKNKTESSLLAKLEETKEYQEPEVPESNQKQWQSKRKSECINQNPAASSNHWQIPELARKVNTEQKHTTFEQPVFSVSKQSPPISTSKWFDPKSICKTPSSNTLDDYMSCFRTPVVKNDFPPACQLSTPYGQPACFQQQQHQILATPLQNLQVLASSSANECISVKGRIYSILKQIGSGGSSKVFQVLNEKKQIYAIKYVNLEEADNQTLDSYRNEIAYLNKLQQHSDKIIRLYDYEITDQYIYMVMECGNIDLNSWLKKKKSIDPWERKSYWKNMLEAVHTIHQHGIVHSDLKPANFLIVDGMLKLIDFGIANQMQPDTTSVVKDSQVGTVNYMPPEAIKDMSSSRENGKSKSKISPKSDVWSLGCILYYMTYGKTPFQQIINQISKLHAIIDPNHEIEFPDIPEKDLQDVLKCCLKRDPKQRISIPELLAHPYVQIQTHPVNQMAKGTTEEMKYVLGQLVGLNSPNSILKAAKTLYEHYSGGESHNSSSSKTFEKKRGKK
Put plainly: TTK enzyme inhibition, ADP-Glo kinase assay. The format is biochemical. Set-up: purchased SignalChem T20-10G. As to conditions: ATP 5 μM. An outline of the steps:
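Purified human TTK (7.5 ng) was reacted with 5 μM ATP and 0.2 μg MBP substrate for 4 h at 25 °C in 40 mM Tris-HCl pH 7.4, 20 mM MgCl2, 0.1 mg/mL BSA, 50 μM DTT. ADP formation was read by ADP-Glo luminescence, and IC50 was taken relative to solvent control.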
On the technique in general: In ADP-Glo the light output rises with the ADP produced.

One may read the IC50 as the concentration that inhibits the measured activity by half. The GI50 is the concentration that inhibits growth by half. Low values mean greater sensitivity of the cells, high ones lower sensitivity of the cells. For the compound `COCCNc1nc(Nc2ccc(C(=O)N3CCC(N4CCOCC4)CC3)c3c2OCC3)nc2[nH]cc(C(F)(F)F)c12` [Example 443, (7-((4-((2-methoxyethyl)amino)-5-(trifluoromethyl)-7H-pyrrolo[2,3-d]pyrimidin-2-yl)amino)-2,3-dihydrobenzo-furan-4-yl)(4-morpho-linopiperidin-1-yl)methanone], the IC50 at human GST-DYRK1A and on TTK was less than 100 nM throughout. In the test with MDA-MB-468 cell line, this compound showed a 50% growth inhibitory concentration (GI50) of 301 to 1000 nM.
As to `CCCNc1nc(Nc2ccc(C(=O)N3CCC(N4CCOCC4)CC3)c3c2OCC3)nc2[nH]cc(C(F)(F)F)c12` [Example 446, (4-morpholino-piperidin-1-yl)(7-((4-(propylamino)-5-(trifluoromethyl)-7H-pyrrolo[2,3-d]pyrimidin-2-yl)amino)-2,3-dihydrobenzo-furan-4-yl)methanone], the IC50 at human GST-DYRK1A and on TTK was less than 100 nM in each case. This compound also came in with a GI50 with MDA-MB-468 cell line of 301 to 1000 nM.
Turning to `CCNc1nc(Nc2ccc(C(=O)N3CCC(N4C[C@@H]5C[C@H]4CO5)CC3)c3c2OCC3)nc2[nH]cc(C(F)(F)F)c12` [Example 468], the IC50 on human GST-DYRK1A and at TTK was less than 100 nM throughout. Besides, the GI50 in the test with MDA-MB-468 cell line is 301 to 1000 nM.
